Columns and labels:
Assay in all cases: relative viability (nuclei count vs DMSO), 5 days (fraction); higher = more cells survive
Sunitinib + Bortezomib = compound: CCN(CC)CCNC(=O)c1c(C)[nH]c(/C=C2\C(=O)Nc3ccc(F)cc32)c1C [Sunitinib] + CC(C)C[C@H](NC(=O)[C@H](Cc1ccccc1)NC(=O)c1cnccn1)B(O)O [Bortezomib] (partner 0.002 µM)
Method in brief: (§1)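 Dosing by pin tool came one day after lung cancer cell lines were seeded in 1536-well plates, using either one drug or a fixed anchor-drug dose plus five library-drug doses (not always all listed) in √10 steps. After 5 days, nuclei were counted on 4× images. Relative viability is treated-well nuclei count divided by vehicle-well nuclei count, and values are medians of duplicate plates.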

Sunitinib + Alpelisib = compound: CCN(CC)CCNC(=O)c1c(C)[nH]c(/C=C2\C(=O)Nc3ccc(F)cc32)c1C [Sunitinib] + Cc1nc(NC(=O)N2CCC[C@H]2C(N)=O)sc1-c1ccnc(C(C)(C)C(F)(F)F)c1 [Alpelisib] (partner 2 µM)
Method in brief: as §1

Sunitinib + Pemetrexed = compound: CCN(CC)CCNC(=O)c1c(C)[nH]c(/C=C2\C(=O)Nc3ccc(F)cc32)c1C [Sunitinib] + Nc1nc2[nH]cc(CCc3ccc(C(=O)N[C@@H](CCC(=O)O)C(=O)O)cc3)c2c(=O)[nH]1 [Pemetrexed] (partner 0.2 µM)
Method in brief: as §1

Sunitinib + Olaparib = compound: CCN(CC)CCNC(=O)c1c(C)[nH]c(/C=C2\C(=O)Nc3ccc(F)cc32)c1C [Sunitinib] + O=C(c1cc(Cc2n[nH]c(=O)c3ccccc23)ccc1F)N1CCN(C(=O)C2CC2)CC1 [Olaparib] (partner 8 µM)
Method in brief: as §1

| Cell Line | relative viability (Sunitinib + Bortezomib; first compound 0.02 µM) | relative viability (Sunitinib + Bortezomib; first compound 0.06325 µM) | relative viability (Sunitinib + Bortezomib; first compound 0.2 µM) | relative viability (Sunitinib + Bortezomib; first compound 0.6325 µM) | relative viability (Sunitinib + Bortezomib; first compound 2 µM) | relative viability (Sunitinib + Alpelisib; first compound 0.02 µM) | relative viability (Sunitinib + Alpelisib; first compound 0.2 µM) | relative viability (Sunitinib + Alpelisib; first compound 2 µM) | relative viability (Sunitinib + Pemetrexed; first compound 0.02 µM) | relative viability (Sunitinib + Pemetrexed; first compound 0.06325 µM) | relative viability (Sunitinib + Pemetrexed; first compound 0.2 µM) | relative viability (Sunitinib + Pemetrexed; first compound 0.6325 µM) | relative viability (Sunitinib + Pemetrexed; first compound 2 µM) | relative viability (Sunitinib + Olaparib; first compound 0.02 µM) | relative viability (Sunitinib + Olaparib; first compound 0.06325 µM) | relative viability (Sunitinib + Olaparib; first compound 0.2 µM) | relative viability (Sunitinib + Olaparib; first compound 0.6325 µM) | relative viability (Sunitinib + Olaparib; first compound 2 µM) | relative viability (Sunitinib + Alpelisib; first compound 0.06325 µM) | relative viability (Sunitinib + Alpelisib; first compound 0.6325 µM) |
| --- | --- | --- | --- | --- | --- | --- | --- | --- | --- | --- | --- | --- | --- | --- | --- | --- | --- | --- | --- | --- |
| 201T | 1.08 | 1.09 | 1.13 | 1.09 | 1.08 | 1.04 | 1.06 | 1.02 | 0.32 | 0.325 | 0.356 | 0.301 | 0.355 | 0.843 | 0.845 | 0.855 | 0.865 | 0.853 |  |  |
| A549 |  |  |  |  |  | 0.686 | 0.884 | 0.776 |  |  |  |  |  | 0.282 | 0.326 | 0.348 | 0.484 | 0.383 | 0.825 | 0.872 |
| A-427 |  | 0.987 | 0.976 | 0.986 | 0.936 | 1.06 | 1.15 | 1.05 | 0.993 | 1 | 0.95 | 0.997 | 1.01 | 0.701 | 0.721 | 0.832 | 0.848 | 0.771 | 1.06 | 1.08 |
| ABC-1 | 0.294 | 0.309 | 0.297 | 0.289 | 0.312 | 1.08 | 1.2 | 0.837 |  |  |  |  |  | 0.728 | 0.919 | 0.868 | 1.06 | 0.966 | 0.994 | 1.26 |
| BEN | 0.769 | 0.904 | 0.757 | 0.784 | 0.733 | 0.898 | 1.04 | 0.955 | 0.812 | 0.862 |  | 0.742 | 0.74 | 1.02 | 1.03 | 1.14 | 1.08 | 0.956 | 1.1 | 0.991 |
| CAL-12T | 1.04 | 1.06 | 1.07 | 1.21 | 1.05 | 0.957 | 1.25 | 1.14 | 1.06 | 1.17 | 1.17 |  | 1.34 | 0.718 | 0.755 | 0.791 | 0.817 | 0.772 | 1.19 | 1.43 |
| COR-L23 | 0.995 | 1.02 | 1 | 1.13 |  | 0.897 | 0.935 | 0.891 | 0.207 | 0.196 | 0.196 | 0.199 | 0.216 | 0.317 | 0.349 | 0.361 | 0.385 | 0.351 | 0.724 | 0.917 |
| COR-L 105 | 0.977 | 0.877 | 0.923 | 1.01 | 0.823 | 0.925 | 1.04 | 0.829 | 1.08 | 1.01 | 1.1 | 1.14 | 1.22 | 0.591 | 0.695 | 0.881 | 0.651 | 0.837 | 0.835 | 1.23 |
| Calu-6 | 0.979 |  | 1.08 | 1.2 | 1.09 | 0.904 | 1.11 | 0.898 |  |  |  |  |  | 0.575 | 0.57 | 0.598 | 0.571 | 0.614 | 1.1 | 1.16 |
